The values that follow come from patent EP2814319B1, “ANTIMICROBIAL COMPOSITION CONTAINING PHOTOCHEMICALLY STABLE SILVER COMPLEXES” (NM Tech Nanomaterials and Microdevices Technology Ltd., priority 2012, dated 2013).

Each structure is given as a SMILES string.

One data set can be described thus: Solubility in water. The format is physicochemical. As to conditions: without surfactant. How it is done:
The complex of formula Ag-L can be prepared by adding stoichiometric amounts of 4-mercaptophenylboronic acid to an aqueous solution of a silver salt, such as silver nitrate. […] This complex can be solubilized in aqueous solution by addition of a cationic surfactant.
(§1) The neutral complex Ag-L with L = 4-mercaptophenilboronic acid was prepared by adding stoichiometric amounts of 4-mercaptophenylboronic acid to an aqueous solution of a silver salt, such as silver nitrate. […] The aqueous solution of the complex was stabilized by addition of Benzalkonium chloride up to reach a concentration of about 2 x 10^-2 M, which corresponds to the double of its critical micelle concentration.

Data set [1] in a line: Photochemical stability of aqueous solutions under ambient light exposure. The format is physicochemical. How it is done: The observation that, after a 12 month period, in the presence of a cationic surfactant no precipitation and no formation of metallic Silver occur, confirms the relevant role of the cationic surfactants in determining the stabilization in solution of the neutral complex and the role of the ligand L in stabilizing photochemically the Ag^+ ion.
as §1

Data set [2] has as its system Staphylococcus aureus (ATCC- 6538), Pseudomonas aeruginosa (ATCC - 15442). Description: Quantitative suspension test for bactericidal activity (UNI EN 1272:2009). The format is cell-based. The procedure: The bactericidal activity was tested on freshly prepared aqueous solutions of the neutral Ag-L complex where the ligand L coordinated to the silver ion is 4-mercaptophenilboronic acid .
Additional tests were carried out on aqueous solutions containing the neutral Silver Ag-L complex and different cationic surfactants and, for purpose of comparison, on aqueous solutions containing only the cationic surfactants at the same concentration levels. It is in fact known that the cationic surfactants used for the purposes of the invention are endowed with antimicrobic activity on their own.
The bactericidal activity tests were carried out according to UNI EN 1272:2009 and UNI EN 13697:2001 standards, which make reference to chemical disinfectants and antiseptics, by using the following test organism: Staphylococcus aureus (ATCC- 6538), as representative of Gram-positive bacteria and Pseudomonas aeruginosa (ATCC - 15442), as representative of Gram-negative bacteria.
On such solutions it was in fact observed a maximum reduction of the bacterial count of ca 6-7 log.

For data set [3] the following is noted: treating burns; decreased from 60%; cited from earlier work.
The test system of data set [4] is Staphylococcus epidermidis. Conditions: cited from earlier work.

For the compound `OB(O)c1ccc([S][Ag])cc1` [AgL], the solubility in water entry in “Solubility in water” was “only partly soluble in water”. Besides, the “change in color or composition” value in data set [1] (aqueous solution stabilized with Benzalkonium chloride about 2 x 10^-2 M, 12 months ambient light exposure) was “did not show any change in color or composition”. Further, the log reduction at 330 µM in data set [2] (Staphylococcus aureus, 0.5 h, concentration of the order of 3.3 x 10^-4 M in water, 30 min of contact, read-out: log reduction of bacterial count) was in the range of 2 to 3.
`O=[N+]([O-])[O-].[Ag+]` [Silver Nitrate, silver nitrate]: the “formation of Ag° precipitate” value in data set [1] (aqueous solution, comparable conditions (ambient light exposure)) is “formation of a black Ag° precipitate after few minutes”. In data set [2] (concentration of the order of 3.3 x 10^-4 M in water, 30 min of contact), the “log reduction of bacterial count” value was 2-3 log. For the same compound, the “antimicrobial activity after exposure to ambient light” value in data set [2] (solution of concentration comparable to 3.3 x 10^-4 M) is “lose the antimicrobial activity after exposure to ambient light”. For the same compound, the “number of deaths that were a result of sepsis” value in data set [3] is given as 28%.
For `[H]/N=C(\N/C(=N/[H])NCCCCCCNC(=N)NC(=N)Nc1ccc(Cl)cc1)Nc1ccc(Cl)cc1` [chlorhexidine], in data set [4], the development of resistance result was “no evidence of resistance”.
